Test results reported in patent US20260232767A1, “INTERLEUKIN-23 RECEPTOR ANTAGONIST PEPTIDES FOR USE IN THE TREATMENT OF PSORIASIS” (Janssen Pharmaceutica NV, priority 2023, published 2026).

System: subjects with moderate-to-severe plaque psoriasis
Test: PSSD symptom and sign scores, Example 2
Type: in vivo, human
Details: for Change from Baseline in PSSD Symptom Score at Week 52, LSMean: MMRM model; for Subjects Achieving PSSD Sign Score 0 at Week 52: Subjects w/Baseline PSSD Sign Score ≥1 (Table 26, second block); for Subjects achieving PSSD Sign Score = 0 at Week 52: subjects with Baseline PSSD Sign Score ≥1; for Subjects achieving PSSD Symptom Score = 0 at Week 52: subjects with Baseline PSSD Symptom Score ≥1; for Change from Baseline in PSSD Sign Score, LSMean / Change from Baseline in PSSD Symptom Score, LSMean: MMRM
[1] = Placebo → 100 mg QD, crossed over at or after Week 16

CC(=O)NCCCC[C@@H]1NC(=O)[C@H](Cc2c[nH]c3c(C)cccc23)NC(=O)[C@H]([C@@H](C)O)NC(=O)[C@H](CC(N)=O)NC(=O)[C@@H](NC(C)=O)C(C)(C)SSC(C)(C)[C@@H](C(=O)N[C@@H](Cc2ccc(OCCN)cc2)C(=O)N[C@@H](Cc2ccc3ccccc3c2)C(=O)NC2(C(=O)N[C@@H](CCC(=O)O)C(=O)N[C@@H](CC(N)=O)C(=O)N[C@@H](Cc3cccnc3)C(=O)N(C)CC(N)=O)CCOCC2)NC1=O [IL-23 receptor antagonist peptide, Ac-[Pen]*-N-T-[W(7-Me)]-[Lys(Ac)]-[Pen]*-Phe[4-(2-aminoethoxy)]-[2-Nal]-[THP]-E-N-[3-Pal]-Sarc-NH2 (*[Pen]-[Pen]* formdisulfidebond)]
Change from Baseline in PSSD Sign Score at Week 52, Median (25 mg BID): −38.5
Change from Baseline in PSSD Symptom Score at Week 52, Median (25 mg BID): −27.0
Change from Baseline in PSSD Symptom Score at Week 52, LSMean (25 mg BID): −31.4
Subjects Achieving PSSD Sign Score 0 at Week 52 (25 mg BID): 5 (12.2%)
Subjects achieving PSSD Sign Score = 0 at Week 52 (25 mg BID): 5 (12.2%)
Subjects achieving PSSD Symptom Score = 0 at Week 52 (25 mg BID): 7 (17.1%)
Change from Baseline in PSSD Sign Score at Week 52, Median (25 mg QD): −32.5
Change from Baseline in PSSD Symptom Score at Week 52, Median (25 mg QD): −35.0
Change from Baseline in PSSD Symptom Score at Week 52, LSMean (25 mg QD): −22.3
Subjects Achieving PSSD Sign Score 0 at Week 52 (25 mg QD): 7 (16.3%)
Subjects achieving PSSD Sign Score = 0 at Week 52 (25 mg QD): 7 (16.3%)
Subjects achieving PSSD Symptom Score = 0 at Week 52 (25 mg QD): 8 (18.6%)
Change from Baseline in PSSD Sign Score at Week 52, Median (50 mg QD): −45.0
Change from Baseline in PSSD Symptom Score at Week 52, Median (50 mg QD): −34.0
Change from Baseline in PSSD Symptom Score at Week 52, LSMean (50 mg QD): −33.0
Subjects achieving PSSD Sign Score = 0 at Week 52 (50 mg QD): 5 (11.6%)
Subjects achieving PSSD Symptom Score = 0 at Week 52 (50 mg QD): 9 (21.4%)
Change from Baseline in PSSD Sign Score at Week 52, Median (100 mg BID): −55.0
Change from Baseline in PSSD Symptom Score at Week 52, Median (100 mg BID): −53.0
Change from Baseline in PSSD Symptom Score at Week 52, LSMean (100 mg BID): −44.0
Subjects Achieving PSSD Sign Score 0 at Week 52 (100 mg BID): 7 (16.7%)
Subjects achieving PSSD Sign Score = 0 at Week 52 (100 mg BID): 7 (16.7%)
Change from Baseline in PSSD Sign Score at Week 52, Median (100 mg QD): −43.0
Change from Baseline in PSSD Symptom Score at Week 52, Median (100 mg QD): −28.0
Change from Baseline in PSSD Symptom Score at Week 52, LSMean (100 mg QD): −36.5
Subjects Achieving PSSD Sign Score 0 at Week 52 (100 mg QD): 6 (14.0%)
Change from Baseline in PSSD Sign Score at Week 52, Median [1]: −48.5
Change from Baseline in PSSD Symptom Score at Week 52, Median [1]: −30.0
Change from Baseline in PSSD Symptom Score at Week 52, LSMean [1]: −32.4
Subjects achieving PSSD Sign Score = 0 at Week 52 [1]: (22.9%)
Subjects achieving PSSD Symptom Score = 0 at Week 52 [1]: (34.3%)
Change from Baseline in PSSD Sign Score, Mean (Week 1, 25 mg BID): −11.3
Change from Baseline in PSSD Sign Score, Median (Week 1, 25 mg BID): −11.0
Change from Baseline in PSSD Symptom Score, Mean (Week 1, 25 mg BID): −7.6
Change from Baseline in PSSD Symptom Score, Median (Week 1, 25 mg BID): −8.0
Change from Baseline in PSSD Sign Score, LSMean (Week 1, 25 mg BID): −11.4
Change from Baseline in PSSD Symptom Score, LSMean (Week 1, 25 mg BID): −7.8
Change from Baseline in PSSD Sign Score, Mean (Week 1, 25 mg QD): −11.9
Change from Baseline in PSSD Sign Score, Median (Week 1, 25 mg QD): −10.5
Change from Baseline in PSSD Symptom Score, Mean (Week 1, 25 mg QD): −12.9
Change from Baseline in PSSD Symptom Score, Median (Week 1, 25 mg QD): −12.0
Change from Baseline in PSSD Sign Score, LSMean (Week 1, 25 mg QD): −10.9
Change from Baseline in PSSD Symptom Score, LSMean (Week 1, 25 mg QD): −11.1
Change from Baseline in PSSD Sign Score, Mean (Week 1, 50 mg QD): −13.3
Change from Baseline in PSSD Sign Score, Median (Week 1, 50 mg QD): −11.0
Change from Baseline in PSSD Symptom Score, Mean (Week 1, 50 mg QD): −9.6
Change from Baseline in PSSD Symptom Score, Median (Week 1, 50 mg QD): −12.0
Change from Baseline in PSSD Sign Score, LSMean (Week 1, 50 mg QD): −13.3
Change from Baseline in PSSD Symptom Score, LSMean (Week 1, 50 mg QD): −9.1
Change from Baseline in PSSD Sign Score, Mean (Week 1, 100 mg BID): −15.9
Change from Baseline in PSSD Sign Score, Median (Week 1, 100 mg BID): −16.0
Change from Baseline in PSSD Symptom Score, Mean (Week 1, 100 mg BID): −12.5
Change from Baseline in PSSD Symptom Score, Median (Week 1, 100 mg BID): −8.0
Subjects Achieving PSSD Symptom Score 0 (%) (Week 1, 100 mg BID, Baseline Symptom Score ≥1, N=42): (2.4%)
Change from Baseline in PSSD Sign Score, LSMean (Week 1, 100 mg BID): −15.6
Change from Baseline in PSSD Symptom Score, LSMean (Week 1, 100 mg BID): −11.5
Change from Baseline in PSSD Sign Score, Mean (Week 1, 100 mg QD): −12.0
Change from Baseline in PSSD Sign Score, Median (Week 1, 100 mg QD): −9.0
Change from Baseline in PSSD Symptom Score, Mean (Week 1, 100 mg QD): −6.2
Change from Baseline in PSSD Symptom Score, Median (Week 1, 100 mg QD): −7.0
Change from Baseline in PSSD Sign Score, LSMean (Week 1, 100 mg QD): −12.4
Change from Baseline in PSSD Symptom Score, LSMean (Week 1, 100 mg QD): −8.4
Change from Baseline in PSSD Sign Score, Mean (Week 2, 25 mg BID): −20.3
Change from Baseline in PSSD Sign Score, Median (Week 2, 25 mg BID): −15.0
Change from Baseline in PSSD Symptom Score, Mean (Week 2, 25 mg BID): −16.0
Change from Baseline in PSSD Symptom Score, Median (Week 2, 25 mg BID): −12.0
Change from Baseline in PSSD Sign Score, LSMean (Week 2, 25 mg BID): −20.7
Change from Baseline in PSSD Symptom Score, LSMean (Week 2, 25 mg BID): −16.2
Change from Baseline in PSSD Sign Score, Mean (Week 2, 25 mg QD): −17.6
Change from Baseline in PSSD Sign Score, Median (Week 2, 25 mg QD): −17.5
Change from Baseline in PSSD Symptom Score, Mean (Week 2, 25 mg QD): −18.1
Change from Baseline in PSSD Symptom Score, Median (Week 2, 25 mg QD): −17.0
Change from Baseline in PSSD Sign Score, LSMean (Week 2, 25 mg QD): −15.7
Change from Baseline in PSSD Symptom Score, LSMean (Week 2, 25 mg QD): −15.8
Change from Baseline in PSSD Sign Score, Mean (Week 2, 50 mg QD): −22.7
Change from Baseline in PSSD Sign Score, Median (Week 2, 50 mg QD): −22.0
Change from Baseline in PSSD Symptom Score, Mean (Week 2, 50 mg QD): −17.3
Change from Baseline in PSSD Symptom Score, Median (Week 2, 50 mg QD): −16.0
Subjects Achieving PSSD Symptom Score 0 (%) (Week 2, 50 mg QD, Baseline Symptom Score ≥1, N=42): (2.4%)
Change from Baseline in PSSD Sign Score, LSMean (Week 2, 50 mg QD): −23.1
Change from Baseline in PSSD Symptom Score, LSMean (Week 2, 50 mg QD): −17.2
Change from Baseline in PSSD Sign Score, Mean (Week 2, 100 mg BID): −24.7
Change from Baseline in PSSD Sign Score, Median (Week 2, 100 mg BID): −28.0
Change from Baseline in PSSD Symptom Score, Mean (Week 2, 100 mg BID): −18.4
Change from Baseline in PSSD Symptom Score, Median (Week 2, 100 mg BID): −14.0
Change from Baseline in PSSD Sign Score, LSMean (Week 2, 100 mg BID): −24.3
Change from Baseline in PSSD Symptom Score, LSMean (Week 2, 100 mg BID): −17.1
Change from Baseline in PSSD Sign Score, Mean (Week 2, 100 mg QD): −22.6
Change from Baseline in PSSD Sign Score, Median (Week 2, 100 mg QD): −20.0
Change from Baseline in PSSD Symptom Score, Mean (Week 2, 100 mg QD): −15.2
Change from Baseline in PSSD Symptom Score, Median (Week 2, 100 mg QD): −14.0
Change from Baseline in PSSD Sign Score, LSMean (Week 2, 100 mg QD): −24.3
Change from Baseline in PSSD Symptom Score, LSMean (Week 2, 100 mg QD): −18.4
Change from Baseline in PSSD Sign Score, Mean (Week 4, 25 mg BID): −26.9
Change from Baseline in PSSD Sign Score, Median (Week 4, 25 mg BID): −25.0
Change from Baseline in PSSD Symptom Score, Mean (Week 4, 25 mg BID): −22.8
Change from Baseline in PSSD Symptom Score, Median (Week 4, 25 mg BID): −20.0
Subjects Achieving PSSD Symptom Score 0 (%) (Week 4, 25 mg BID, Baseline Symptom Score ≥1, N=41): (4.9%)
Change from Baseline in PSSD Sign Score, LSMean (Week 4, 25 mg BID): −27.5
Change from Baseline in PSSD Symptom Score, LSMean (Week 4, 25 mg BID): −23.1
Change from Baseline in PSSD Sign Score, Mean (Week 4, 25 mg QD): −24.5
Change from Baseline in PSSD Sign Score, Median (Week 4, 25 mg QD): −29.5
Change from Baseline in PSSD Symptom Score, Mean (Week 4, 25 mg QD): −23.6
Change from Baseline in PSSD Symptom Score, Median (Week 4, 25 mg QD): −23.0
Subjects Achieving PSSD Symptom Score 0 (%) (Week 4, 25 mg QD, Baseline Symptom Score ≥1, N=43): (2.3%)
Change from Baseline in PSSD Sign Score, LSMean (Week 4, 25 mg QD): −21.7
Change from Baseline in PSSD Symptom Score, LSMean (Week 4, 25 mg QD): −19.9
Change from Baseline in PSSD Sign Score, Mean (Week 4, 50 mg QD): −27.4
Change from Baseline in PSSD Sign Score, Median (Week 4, 50 mg QD): −29.0
